Consider four compounds from publication doi:10.1101/2025.03.31.646301v1, “Discovery of Tankyrase scaffolding inhibitor specifically targeting the ARC4 peptide binding domain” (biorxiv, 2025).

In experiment [1] the target is T1, TNKS1 ARC2-3 (Homo sapiens, UniProt O95271).
T1 construct: gene TNKS; ankyrin repeat clusters 2-3, 6xHis-mCerulean (CFP) fusion, E. coli
T1 sequence (O95271 336-649 limits assumed): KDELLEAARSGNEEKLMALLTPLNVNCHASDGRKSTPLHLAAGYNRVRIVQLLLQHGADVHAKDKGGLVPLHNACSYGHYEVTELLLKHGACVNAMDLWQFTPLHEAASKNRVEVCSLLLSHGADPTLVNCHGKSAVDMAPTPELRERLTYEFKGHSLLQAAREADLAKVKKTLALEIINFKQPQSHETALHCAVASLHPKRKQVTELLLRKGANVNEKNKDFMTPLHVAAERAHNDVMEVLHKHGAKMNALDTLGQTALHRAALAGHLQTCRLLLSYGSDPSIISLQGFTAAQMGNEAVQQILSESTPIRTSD
Nature of the experiment: FRET displacement of YFP-REAGDGEE peptide from CFP-ARC. In kind it is binding. An excerpt: FRET displacement of YFP-REAGDGEE peptide from CFP-ARC on TNKS1 ARC2-3

Experiment [2] has as its target T2, TNKS2 ARC2 (Homo sapiens, UniProt Q9H2K2).
T2 construct: ankyrin repeat cluster 2 domain, 6xHis-mCerulean (CFP) fusion, E. coli
T2 sequence (Q9H2K2 173-329 limits assumed): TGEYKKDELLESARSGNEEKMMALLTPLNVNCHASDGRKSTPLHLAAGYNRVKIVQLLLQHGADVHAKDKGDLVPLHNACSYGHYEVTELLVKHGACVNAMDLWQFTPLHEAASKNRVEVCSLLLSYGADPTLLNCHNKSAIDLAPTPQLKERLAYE
The description is as above. It counts as binding. The text has this:
FRET displacement of YFP-REAGDGEE peptide from CFP-ARC on TNKS2 ARC2

The target of experiment [3] is T3, TNKS1 ARC1 (Homo sapiens, UniProt O95271).
T3 construct: gene TNKS; ankyrin repeat cluster 1 domain, 6xHis-mCerulean (CFP) fusion, E. coli
T3 sequence (O95271 173-336 limits assumed): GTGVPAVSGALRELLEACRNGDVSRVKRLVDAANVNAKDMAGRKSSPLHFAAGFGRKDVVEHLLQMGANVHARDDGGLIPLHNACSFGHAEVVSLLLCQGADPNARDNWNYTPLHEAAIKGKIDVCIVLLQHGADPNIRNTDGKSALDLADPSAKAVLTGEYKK
The description is as above. It counts as binding. The text has this: FRET displacement of YFP-REAGDGEE peptide from CFP-ARC on TNKS1 ARC1

The target in experiment [4] is T4, TNKS1 ARC5 (Homo sapiens, UniProt O95271).
T4 construct: gene TNKS; ankyrin repeat cluster 5 domain, 6xHis-mCerulean (CFP) fusion, E. coli
T4 sequence (O95271 806-966 limits assumed): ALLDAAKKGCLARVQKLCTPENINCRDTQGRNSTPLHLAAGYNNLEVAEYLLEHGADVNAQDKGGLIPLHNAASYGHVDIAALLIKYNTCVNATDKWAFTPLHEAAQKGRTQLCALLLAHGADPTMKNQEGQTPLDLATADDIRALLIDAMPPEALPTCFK
Described as above. It counts as binding. The text has this: FRET displacement of YFP-REAGDGEE peptide from CFP-ARC on TNKS1 ARC5

In experiment [5] the target is T5, TNKS2 ARC4 (Homo sapiens, UniProt Q9H2K2).
T5 construct: ankyrin repeat cluster 4 domain; FRET: 6xHis-mCerulean (CFP) fusion; DSF, NMR, crystal: MBP and His tag cleaved by TEV, residues 487-649 printed for crystal; E. coli BL21(DE3)
T5 sequence (Q9H2K2 487-649): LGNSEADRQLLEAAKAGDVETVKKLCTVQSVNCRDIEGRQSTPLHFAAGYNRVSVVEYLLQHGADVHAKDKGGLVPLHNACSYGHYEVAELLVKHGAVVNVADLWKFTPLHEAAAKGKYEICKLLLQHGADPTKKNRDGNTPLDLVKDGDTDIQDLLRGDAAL
Nature of the experiment: X-ray co-crystal structure. In kind it is binding. The note with it: residues 487-649, tag-free, pH 4.2; S enantiomer in TBM pocket, R enantiomer at crystal contacts.

The target of experiment [6] is T6, TNKS1 ARC4 (Homo sapiens, UniProt O95271).
T6 construct: gene TNKS; ankyrin repeat cluster 4 domain, 6xHis-mCerulean (CFP) fusion, E. coli
T6 sequence (O95271 649-806 limits assumed): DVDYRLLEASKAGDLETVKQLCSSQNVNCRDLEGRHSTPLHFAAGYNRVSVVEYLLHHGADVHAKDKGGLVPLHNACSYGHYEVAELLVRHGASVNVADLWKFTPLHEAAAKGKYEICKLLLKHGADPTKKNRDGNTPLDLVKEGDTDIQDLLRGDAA
As to the kind of experiment: FRET displacement of YFP-REAGDGEE peptide from CFP-ARC. In kind it is binding. An excerpt:
FRET displacement of YFP-REAGDGEE peptide from CFP-ARC on TNKS1 ARC4

Experiment [7] deals with T5, TNKS2 ARC4. Details: DSF thermal shift of TNKS2 ARC4, stabilization over DMSO control. The note with it: binder. An excerpt:
Given the notable stabilization of the pyrrolone-based compounds from the Commercials Diversity collection, we decided to focus on their common scaffold for compound optimization. Pyrrolone is indeed a versatile moiety that is largely employed for the design of compounds with a variety of biological effects.[55] The nine primary hits were acquired from commercial suppliers, they underwent quality control, additional DSF validation and determination of potency through FRET-based IC50 measurements (Table 1). All the tested compounds include a benzodioxane moiety (R[1]), a [compound left out] group with substitutions in the para position (R[2]), and an R[3] group with an aliphatic character and a tertiary amine. […] In addition, all molecules, except for 7, have IC50 values below 100 µM. Among the nine molecules, 1 performed the best in terms of stabilization of TNKS2 ARC4 and potency. […] In the same position, the presence of a hydrophobic methyl group (3, 4), other halogen substituents (5) and alkoxy groups (6–9) is also tolerated, even if not optimal. […] A SAR investigation was conducted with purchased and synthesized analogues of 1 through FRET-based potency measurements and DSF assay with TNKS2 ARC4 (Table 2, Table S2). All the compounds commercially acquired underwent quality control. […] Changes to the length of the aliphatic chain at R[3] greatly impacts both potency and protein stabilization. […] The diethylamino-based substituent at R[3] […] Compounds 25 and 26 further indicate that the presence of tertiary amine at R[3] is not necessary to achieve binding. […] 5 Figure S2. DSF assay results for validation of primary hits identified in the EU-OPENSCREEN Commercials Diversity Library. (A) and (B) show DSF assay validation measurements of TNKS2 ARC4 with primary hits from the Commercial Diversity Library. Compounds are tested at 100 μM. They are named after their EU-OPENSCREEN identity codes and the identities are available for consultation on ECBD. 1,2 (A) and (B) show results from two independent experiments. For each experiment, each compound was tested with a single measurement, while controls (TNKS2 ARC4 with 100 μM optimized peptide, TNKS2 ARC4 with 100 μM DMSO) are studied in at least four replicates and errors are shown. Moreover, stabilization over the control (TNKS2 ARC4 with DMSO) is indicated (ΔTm °C). […] It was not possible to measure the melting curve of TNKS2 ARC4 in presence of EOS21552, EOS54043, EOS54043.

In experiment [8] the target is T5, TNKS2 ARC4. Nature of the experiment: FRET displacement of YFP-REAGDGEE peptide from CFP-ARC. In kind it is binding.
The target of experiment [9] is T7, TNKS2 ARC5 (Homo sapiens, UniProt Q9H2K2).
T7 construct: ankyrin repeat cluster 5 domain, 6xHis-mCerulean (CFP) fusion, E. coli
T7 sequence (Q9H2K2 646-800 limits assumed): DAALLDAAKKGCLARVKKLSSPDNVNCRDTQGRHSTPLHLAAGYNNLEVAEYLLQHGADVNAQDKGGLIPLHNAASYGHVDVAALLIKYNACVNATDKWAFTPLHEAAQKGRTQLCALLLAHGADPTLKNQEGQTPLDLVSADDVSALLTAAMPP
Described as above. It counts as binding. The text has this:
FRET displacement of YFP-REAGDGEE peptide from CFP-ARC on TNKS2 ARC5

In experiment [10] the target is T8, TNKS2 ARC1 (Homo sapiens, UniProt Q9H2K2).
T8 construct: ankyrin repeat cluster 1 domain, 6xHis-mCerulean (CFP) fusion, E. coli
T8 sequence (Q9H2K2 21-174 limits assumed): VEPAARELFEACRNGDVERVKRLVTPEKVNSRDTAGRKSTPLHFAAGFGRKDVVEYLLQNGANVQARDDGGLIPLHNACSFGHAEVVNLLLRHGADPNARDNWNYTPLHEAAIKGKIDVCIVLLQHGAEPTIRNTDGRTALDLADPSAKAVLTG
The description is as above. It counts as binding. An excerpt:
FRET displacement of YFP-REAGDGEE peptide from CFP-ARC on TNKS2 ARC1

The structures appear in SMILES notation.

`CCC(CC)CCCN1C(=O)C(O)=C(C(=O)c2ccc3c(c2)OCCO3)[C@@H]1c1ccc(O)cc1` [S8]: the IC50 in experiment [1] was more than 1000 µM; in [2], more than 1000 µM; in experiment [3], more than 1000 µM; in [4], more than 1000 µM; in experiment [6] it was 9 µM. The X-ray co-crystal structure result in experiment [5] was “we co-crystallized the compound displaying the best potency (S8) with TNKS2 ARC4”. The “ΔTm ± SD (°C)” value in [7] amounted to 2.44 ± 0.12 °C.

Turning to `CCN(CC)CCCN1C(=O)C(O)=C(C(=O)c2ccc3c(c2)OCCO3)C1c1ccc(O)cc1` (stereo not drawn) [compound 1, 1], the IC50 in experiment [1] was more than 1000 µM; in [2], more than 1000 µM; in experiment [3] it was more than 1000 µM; in experiment [4] it was more than 1000 µM; in [8] it was 16 µM; in [9], more than 1000 µM. Also, the IC50 is more than 1000 µM in experiment [10] and 18 µM in [6].

For `Cc1ccc(C2C(C(=O)c3ccc4c(c3)OCCO4)=C(O)C(=O)N2CCCN2CCOCC2)cc1` (stereo not drawn) [compound 4, 4], the half-inhibitory concentration (IC50) in experiment [1] is more than 1000 µM; in [2], more than 1000 µM; in experiment [3], more than 1000 µM; in experiment [4], more than 1000 µM; in experiment [8], 77 µM; in experiment [9] it was more than 1000 µM. For the same compound, the IC50 in [10] is more than 1000 µM; in experiment [6], 121 µM. The “ΔTm ± SD (°C)” value in experiment [7] was 2.19 ± 0.31 °C.

On to `COc1ccc(C2C(C(=O)c3ccc4c(c3)OCCO4)=C(O)C(=O)N2CCCN2CCOCC2)cc1` (stereo not drawn) [compound 6, 6], for which the IC50 was more than 1000 µM in experiment [1]; more than 1000 µM in experiment [2]; more than 1000 µM in experiment [3]; more than 1000 µM in experiment [4]; 82 µM in [8]; more than 1000 µM in [9]. The half-inhibitory concentration (IC50) in experiment [10] is more than 1000 µM; in experiment [6] it was 123 µM. In experiment [7], the “ΔTm ± SD (°C)” value came out at 1.81 ± 0.31 °C.
